Source: US20240207267A1, “(R)-Glutarimide CRBN Ligands and Methods of Use” (BeiGene Switzerland GmbH, priority 2021, published 2024)

How the values were obtained:
Type in all cases: cell-based
HEK-293 cells = test: HEK-293 cytotoxicity detection (CellTiter-Glo); details: Homo sapiens, HEK293, 72 h incubation
Experimental: HEK-293 cells were treated with compounds diluted in 0.2% DMSO, dilution was done according to the following protocol: (1) making 500× stock solution in DMSO from 5 mM by 4-fold dilution, total 8 doses were included; (2) making 2× solution in cell culture medium by transferring 0.5ul 500× stock solution into 125ul medium; (3) adding 50ul of 2× solution to cells for incubation of 72 h.
25 μl of the CellTiter-Glo®Reagent [(Promega) - Cat No. G7572] was added to each well in the 96-well plate. The contents were mixed for 2 minutes on an orbital shaker to induce cell lysis. The plate was then allowed to incubate at room temperature for 10 minutes to stabilize luminescent signal. Luminescence was recorded on BMG PheraStar with luminescence protocol.
The IC50 value of a compound can be obtained by fitting the following equation
(§1) Y=Bottom+(TOP−Bottom)/(1+((IC50/X)^hillslope))
(§2) Wherein, X and Y are known values, and IC50, Hillslope, Top and Bottom are the parameters obtained by fitting with software. Y is the inhibition percentage (calculated from the equation), X is the concentration of the compound; IC50 is the concentration of the compound when the 50% inhibition is reached. The smaller the IC50 value is, the stronger the inhibitory ability of the compound is. Vice versa, the higher the IC50 value is, the weaker the ability the inhibitory ability of the compound is; Hillslope represents the slope of the fitted curve, generally around 1*; Bottom represents the minimum value of the curve obtained by data fitting, which is generally 0%±20%; Top represents the maximum value of the curve obtained by data fitting, which is generally 100%±20%. The experimental data were fitted by calculating and analyzing with Dotmatics data analysis software.

BTK (TMD-8 cells) [1] = target: T1, BTK (TMD-8 cells) (Homo sapiens (Human), UniProt Q06187); test: BTK degradation HTRF assay in TMD-8 cells (Test Example 3); details: 6 h treatment, Table 5
T1 sequence (Q06187 whole entry): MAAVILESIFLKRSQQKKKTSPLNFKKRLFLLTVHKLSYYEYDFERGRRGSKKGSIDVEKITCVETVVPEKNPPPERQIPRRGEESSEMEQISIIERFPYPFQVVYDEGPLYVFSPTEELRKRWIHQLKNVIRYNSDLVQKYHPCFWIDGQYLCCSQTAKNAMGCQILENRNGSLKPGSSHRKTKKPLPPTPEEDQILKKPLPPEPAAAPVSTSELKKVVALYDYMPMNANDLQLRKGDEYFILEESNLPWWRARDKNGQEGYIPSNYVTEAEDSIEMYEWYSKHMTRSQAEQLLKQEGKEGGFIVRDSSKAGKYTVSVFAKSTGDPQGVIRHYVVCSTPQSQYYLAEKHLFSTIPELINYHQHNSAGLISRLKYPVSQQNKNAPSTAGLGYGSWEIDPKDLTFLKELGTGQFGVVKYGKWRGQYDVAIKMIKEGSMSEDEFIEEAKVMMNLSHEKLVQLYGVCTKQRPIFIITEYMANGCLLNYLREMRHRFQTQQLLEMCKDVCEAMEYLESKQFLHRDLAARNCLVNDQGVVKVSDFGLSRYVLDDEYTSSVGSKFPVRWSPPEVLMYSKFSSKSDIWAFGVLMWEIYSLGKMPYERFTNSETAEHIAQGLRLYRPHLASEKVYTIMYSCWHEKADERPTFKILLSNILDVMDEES
Experimental: TMD-8 cells were treated with compounds diluted in 0.2% DMSO, dilution was done according to the following protocol: (1) making 500× stock solution in DMSO from 1 mM by 6-fold dilution, total 8 doses were included; (2) making 2× solution in cell culture medium by transferring 0.5 μl 500× stock solution into […]; (3) adding 15 μl of 2× solution to cells for incubation of 6 h.
After 6 h treatment, 10 μl 4xlysis buffer was added to each well; the plate was sealed and incubated for 30 min at room temperature on a plate shaker; Once the cells was lysed, 16 μL of cell lysate were transferred to a PE 384-well HTRF detection plate; 4 μL of pre-mixed HTRF antibodies were added to each well; the plate was covered with a plate sealer, and then spinned at 1000 rpm for 1 min, then incubated overnight at room temperature; the results were read on BMG PheraStar with HTRF protocol (337 nm-665 nm-620 nm).
(§3) The IC50 (DC50) value of a compound can be obtained by fitting the following equation
as §1
as §2, with “wherein,” for “Wherein,”

BTK (TMD-8 cells) [2] = target: T1, BTK (TMD-8 cells); test: BTK degradation HTRF assay in TMD-8 cells (Test Example 1); details: Table 3; for DC50: 6 h treatment, BTK degradation; for Dmax: TMD8, 6 h treatment, maximum percentage of BTK degradation
Experimental: 1c). […] TMD-8 cells are treated with compounds diluted in 0.2% DMSO, dilution is done according to the following protocol: (1) make 500× stock solution in DMSO from 1 mM by 6-fold dilution, total 8 doses were included; (2) make 2× solution in cell culture medium by transferring 0.5 μl 500× stock solution into 125 μl medium; (3) 15 μl of 2× solution is added to cells and incubate for 6 h.
(§4) After 6 h treatment, add 10 μl 4xlysis buffer to each well; seal the plate and incubate 30 min at room temperature on a plate shaker; Once the cells are lysed, 16 μL of cell lysate are transferred to a PE 384-well HTRF detection plate; 4 μL of pre-mixed HTRF antibodies are added to each well; Cover the plate with a plate sealer, spin 1000 rpm for 1 min, Incubate overnight at room temperature; Read on BMG PheraStar with HTRF protocol (337 nm-665 nm-620 nm).
as §3, §1, §2

IRAKM (THP-1 cells) = IRAKM (THP-1 cells) (Homo sapiens (Human), UniProt Q9Y616); test: IRAKM degradation HTRF assay in THP-1 cells; details: 6 h treatment
Chain of IRAKM (THP-1 cells) (Q9Y616 whole entry): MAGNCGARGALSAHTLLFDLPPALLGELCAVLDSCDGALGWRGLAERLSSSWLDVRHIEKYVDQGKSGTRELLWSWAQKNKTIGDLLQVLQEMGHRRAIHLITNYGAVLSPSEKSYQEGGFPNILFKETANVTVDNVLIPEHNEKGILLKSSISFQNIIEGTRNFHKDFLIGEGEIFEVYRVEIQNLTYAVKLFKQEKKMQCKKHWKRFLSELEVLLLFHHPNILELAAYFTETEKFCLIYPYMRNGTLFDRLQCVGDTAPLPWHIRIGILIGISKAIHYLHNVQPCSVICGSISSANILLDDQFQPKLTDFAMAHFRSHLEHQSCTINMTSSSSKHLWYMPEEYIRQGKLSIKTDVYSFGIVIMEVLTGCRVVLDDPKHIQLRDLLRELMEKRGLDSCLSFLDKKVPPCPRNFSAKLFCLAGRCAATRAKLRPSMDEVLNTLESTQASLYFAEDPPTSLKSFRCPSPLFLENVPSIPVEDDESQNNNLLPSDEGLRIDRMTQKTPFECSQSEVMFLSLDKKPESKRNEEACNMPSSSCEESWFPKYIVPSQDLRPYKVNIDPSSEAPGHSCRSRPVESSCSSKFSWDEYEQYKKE
Experimental: THP-1 cells are treated with compounds diluted in 0.2% DMSO, dilution is done according to the following protocol: (1) make 500× stock solution in DMSO from 5 mM by 5-fold dilution, total 8 doses were included; (2) make 2× solution in cell culture medium by transferring 0.5 μl 500× stock solution into 125 μl medium; (3) 15 μl of 2× solution is added to cells and incubate for 6 h.
as §4, with “1 hour” for “30 min”, “plate(for triple mutant cells, the lysate were diluted by the qual volume 1xlysis buffer before transfer);” for “plate;”
as §3, §1
Wherein, X and Y are known values, and IC50, Hillslope, Top and Bottom are the parameters obtained by fitting with software. Y is the inhibition percentage (calculated from the equation), X is the concentration of the compound; IC50 is the concentration of the compound when the 50% inhibition is reached. […]

| SMILES | IC50 (HEK-293 cells) | DC50 (BTK (TMD-8 cells) [1]) | DC50 (BTK (TMD-8 cells) [2]) | Dmax (BTK (TMD-8 cells) [2]) | DC50 (IRAKM (THP-1 cells)) |
| --- | --- | --- | --- | --- | --- |
| Cc1c(C(=O)Nc2cn(C)cn2)ccc(-c2nn3c(c2C(N)=O)Nc2ccc(N4CCN(CCc5cc(F)c([C@H]6CCC(=O)NC6=O)c(F)c5)CC4)cc2CC3)c1F [Example B37, (R)-7-(4-(4-(2,6-dioxopiperidin-3-yl)-3,5-difluorophenethyl)piperazin-1-yl)-2-(2-fluoro-3-methyl-4-((1-methyl-1H-imidazol-4-yl)carbamoyl)phenyl)-9,10-dihydro-4H-benzo[d]pyrazolo[1,5-a][1,3]diazepine-3-carboxamide] | > 10000 nM | 0.414 nM | – | – | – |
| Cc1cc(-c2cc(Nc3ccc(N4CCN(CCc5cc(F)c([C@H]6CCC(=O)NC6=O)c(F)c5)CC4)cn3)ncn2)ccc1[C@@H](C)NC(=O)c1nc(C(C)(C)C)no1 [Example C41, 3-(tert-butyl)-N—((R)-1-(4-(6-((5-(4-(4-((R)-2,6-dioxopiperidin-3-yl)-3,5-difluorophenethyl)piperazin-1-yl)pyridin-2-yl)amino)pyrimidin-4-yl)-2-methylphenyl)ethyl)-1,2,4-oxadiazole-5-carboxamide] | > 10000 nM | 2.73 nM | – | – | – |
| Cc1cccc(NC(=O)c2ccc(-c3nn4c(c3C(N)=O)Nc3ccc(N5CCN(CCc6cc(F)c([C@H]7CCC(=O)NC7=O)c(F)c6)CC5)cc3CC4)c(F)c2C)n1 [Example B35, (R)-7-(4-(4-(2,6-dioxopiperidin-3-yl)-3,5-difluorophenethyl)piperazin-1-yl)-2-(2-fluoro-3-methyl-4-((6-methylpyridin-2-yl)carbamoyl)phenyl)-9,10-dihydro-4H-benzo[d]pyrazolo[1,5-a][1,3]diazepine-3-carboxamide] | > 10000 nM | 2.32 nM | – | – | – |
| Cc1c(C(=O)Nc2cscn2)ccc(-c2nn3c(c2C(N)=O)Nc2ccc(N4CCN(CCc5cc(F)c([C@H]6CCC(=O)NC6=O)c(F)c5)CC4)cc2CC3)c1F [Example B38, (R)-7-(4-(4-(2,6-dioxopiperidin-3-yl)-3,5-difluorophenethyl)piperazin-1-yl)-2-(2-fluoro-3-methyl-4-(thiazol-4-ylcarbamoyl)phenyl)-9,10-dihydro-4H-benzo[d]pyrazolo[1,5-a][1,3]diazepine-3-carboxamide] | 26.8 nM | 1.7 nM | – | – | – |
| Cc1cc(-c2n[nH]c3ncc(-c4ccc(C5CCN(CCc6cc(F)c([C@H]7CCC(=O)NC7=O)c(F)c6)CC5)cc4)cc23)ccc1CNC(=O)c1nc(C(C)(C)C)no1 [Example 32, (R)-3-(tert-butyl)-N-(4-(5-(4-(1-(4-(2,6-dioxopiperidin-3-yl)-3,5-difluorophenethyl)piperidin-4-yl)phenyl)-1H-pyrazolo[3,4-b]pyridin-3-yl)-2-methylbenzyl)-1,2,4-oxadiazole-5-carboxamide] | – | – | 5.33 nM | 97.4% | – |
| Cc1cc(-c2n[nH]c3ncc(-c4ccc(C5CCN(CCc6ccc(C7CCC(=O)NC7=O)cc6)CC5)cc4)cc23)ccc1CNC(=O)c1nc(C(C)(C)C)no1 (stereo not drawn) [Example 31, 3-(tert-butyl)-N-(4-(5-(4-(1-(4-(2,6-dioxopiperidin-3-yl)phenethyl)piperidin-4-yl)phenyl)-1H-pyrazolo[3,4-b]pyridin-3-yl)-2-methylbenzyl)-1,2,4-oxadiazole-5-carboxamide] | – | – | > 2000 nM | 12% | – |
| Cc1cc(-c2cc(Nc3cccc(N4CCN(CC5CCN(c6ccc(N7CCC(=O)NC7=O)cc6)CC5)CC4)c3)ncn2)c(F)cc1[C@@H](C)NC(=O)c1nc(C(C)(C)C)no1 [Example C39, (R)-3-(tert-butyl)-N-(1-(4-(6-((3-(4-((1-(4-(2,4-dioxotetrahydropyrimidin-1(21)-yl)phenyl)piperidin-4-yl)methyl)piperazin-1-yl)phenyl)amino)pyrimidin-4-yl)-5-fluoro-2-methylphenyl)ethyl)-1,2,4-oxadiazole-5-carboxamide] | > 10000 nM | 242 nM | – | – | – |
| CCc1nc(C(N)=O)c(Nc2ccc(N3CCC(N4CCN(CCc5cc(F)c(C6CCC(=O)NC6=O)c(F)c5)CC4)CC3)c(OC)c2)nc1NC1CCOCC1 (stereo not drawn) [Example D42, 3-((4-(4-(4-(4-(2,6-dioxopiperidin-3-yl)-3,5-difluorophenethyl)piperazin-1-yl)piperidin-1-yl)-3-methoxyphenyl)amino)-6-ethyl-5-((tetrahydro-2H-pyran-4-yl)amino)pyrazine-2-carboxamide] | – | – | – | – | 2.8 nM |
